Data set [1] relates to Human immunodeficiency virus 1. Description: Antiviral activity against DRV-resistant HIV1 NL4-3 VSV-G pseudotyped virus infected in human SUP-T1 cells assessed as inhibition of late stage viral production pretreated for 48 hrs followed by viral infection and measured after 48 hrs by luciferase assay. The class given is functional, organism-based. As to conditions: Human immunodeficiency virus 1, NL4-3, SUP-T1.

Data set [2] deals with Human immunodeficiency virus 1. Description: Antiviral activity against wild-type HIV1 NL4-3 VSV-G pseudotyped virus infected in human SUP-T1 cells assessed as inhibition of late stage viral production pretreated with viral infected SUP-T1 cells for 48 hrs followed by reinfection in TZM-bl cells by luciferase reporter gene assay. As to conditions: Human immunodeficiency virus 1, NL4-3, SUP-T1. The class given is functional, organism-based. (Reporter assays use an easily measured gene product as a stand-in for the process of interest.)

The subject of data set [3] is Human immunodeficiency virus 1. Description: Antiviral activity against HIV1 NL4-3 VSV-G pseudotyped virus infected in human SUP-T1 cells assessed as inhibition of late stage viral production at 100 nM pretreated for 48 hrs followed by viral infection and measured after 48 hrs by luciferase assay relative to control. The class given is functional. The note with it: Human immunodeficiency virus 1, NL4-3, SUP-T1, time 96 hrs.

For data set [4], the target named is Human immunodeficiency virus type 1 protease (Human immunodeficiency virus 1, UniProt Q72874). Description: Inhibition of HIV1 protease expressed in Escherichia coli using Arg-Glu (EDANS)-Ser-Gln-Asn-Tyr-Pro-Ile-Val-Gln-Lys(DABCYL)-Arg as substrate preincubated for 20 to 30 mins followed by substrate addition and measured for 10 mins by FRET assay.
The subject of data set [5] is Human immunodeficiency virus 1. Description: Antiviral activity against HIV1 NL4-3 VSV-G pseudotyped virus infected in human SUP-T1 cells assessed as inhibition of late stage viral production at 10 uM pretreated for 48 hrs followed by viral infection and measured after 48 hrs by luciferase assay relative to control. The class given is functional. As to conditions: Human immunodeficiency virus 1, NL4-3, SUP-T1, time 96 hrs.

The nature of data set [6]: Cytotoxicity against HEK293T cells assessed as reduction in cell viability measured after 24 hrs by CCK8 assay. The class given is toxicity, cell-based, HEK-293T. The note with it: human.
The next data set relates to HIV1 protease. Description: Selectivity index, ratio of CC50 for HEK293T cells to IC50 for inhibition of HIV1 protease expressed in Escherichia coli. The class given is toxicity. As to conditions: human, read-out: Ratio CC50/IC50.
The subject of data set [7] is Human immunodeficiency virus 1. Description: Antiviral activity against HIV1 NL4-3 VSV-G pseudotyped virus infected in human SUP-T1 cells assessed as inhibition of early stage viral production at 10 uM measured after 48 hrs by luciferase assay relative to control. The class given is functional. The note with it: Human immunodeficiency virus 1, NL4-3, SUP-T1.
Data set [8] in a line: Selectivity ratio of EC50 for antiviral activity against DRV-resistant HIV1 NL4-3 VSV-G pseudotyped virus infected in human SUP-T1 cells to EC50 for antiviral activity against wild-type HIV1 NL4-3 VSV-G pseudotyped virus infected in human SUP-T1 cells. The class given is functional, Human immunodeficiency virus 1.

Take `CC(C)CN(C[C@@H](O)[C@H](Cc1ccccc1)NC(=O)O[C@H]1CO[C@H]2OCC[C@H]21)S(=O)(=O)c1ccc(N)cc1`: the EC50 came out at 100 nM in [1] and 2.5 nM in data set [2]. For the same compound, the inhibition at 0.1 µM in data set [3] stood at 100%.
With `CC(C)CN(C[C@@H](O)[C@H](Cc1ccccc1)NC(=O)c1ccc(Cl)cc1O)S(=O)(=O)c1ccc([N+](=O)[O-])cc1`, it took 9.99 nM to reach half-maximal inhibition in [4] (IC50).
`CC(C)CN(C[C@@H](O)[C@H](Cc1ccccc1)NC(=O)c1ccc(Cl)cc1O)S(=O)(=O)c1ccc(F)cc1`: the inhibition at 10 µM in [5] was 97.4%. Further, the IC50 in data set [4] was determined as 6.94 nM.
Take `COc1ccc(C(=O)N[C@@H](Cc2ccccc2)[C@H](O)CN(CC(C)C)S(=O)(=O)c2ccc([N+](=O)[O-])cc2)c(O)c1`: in data set [4], the 50% inhibitory concentration (IC50) turned out to be 12.7 nM.
On to `CC(C)CN(C[C@@H](O)[C@H](Cc1ccccc1)NC(=O)c1cc(O)cc(O)c1)S(=O)(=O)c1ccc([N+](=O)[O-])cc1`, for which the CC50 at 24 h in data set [6] worked out at 86900 nM. Moreover, the selectivity ratio with HIV1 protease was 1.34e+06. Also, the IC50 in data set [4] stood at 0.065 nM.
The matching figures for `CC(C)CN(C[C@@H](O)[C@H](Cc1ccccc1)NC(=O)c1cc(O)c(O)c(O)c1)S(=O)(=O)c1ccc(C(F)(F)F)cc1`: more than 100000 nM, more than 303000 and 0.33 nM.
For the compound `CC(C)CN(C[C@@H](O)[C@H](Cc1ccccc1)NC(=O)c1cc(O)cc(O)c1)S(=O)(=O)c1ccc(F)cc1`, the inhibition at 10 µM in data set [5] was found to be 100%; in data set [7], 2.6%. Further, the EC50 in data set [1] worked out at 610 nM; in [2] it was 740 nM. The CC50 at 24 h in data set [6] is more than 100000 nM. Also, the selectivity ratio with HIV1 protease is more than 4.76e+06. In data set [4], it took 0.021 nM to reach half-maximal inhibition (IC50). In addition, in [8], the “Ratio EC50” value was determined as 0.82.
In [4], `CC(C)CN(C[C@@H](O)[C@H](Cc1ccccc1)NC(=O)c1ccccc1O)S(=O)(=O)c1ccc(C(F)(F)F)cc1` had an IC50 of 23 nM. This lies in the double-digit nanomolar range.
`COc1ccc(C(=O)N[C@@H](Cc2ccccc2)[C@H](O)CN(CC(C)C)S(=O)(=O)c2ccc(C(F)(F)F)cc2)c(O)c1` had an IC50 in data set [4] of 16.2 nM. This IC50 and that of the compound before are within 1.5-fold of each other.
Take `COc1cc(C(=O)N[C@@H](Cc2ccccc2)[C@H](O)CN(CC(C)C)S(=O)(=O)c2ccc([N+](=O)[O-])cc2)cc(OC)c1O`: in data set [6], the CC50 at 24 h is more than 100000 nM. Moreover, in the data set on HIV1 protease, the selectivity ratio is more than 127000. This compound also registered an IC50 in data set [4] of 0.79 nM.
Consider `COc1cc(C(=O)N[C@@H](Cc2ccccc2)[C@H](O)CN(CC(C)C)S(=O)(=O)c2ccc(F)cc2)cc(OC)c1O`, for which the inhibition at 10 µM in [5] was 84.2%. In addition, the CC50 at 24 h in data set [6] was more than 100000 nM. For the same compound, the selectivity ratio in the data set with HIV1 protease is more than 312000. Also, the IC50 in data set [4] is 0.32 nM.
For the compound `CC(C)CN(C[C@@H](O)[C@H](Cc1ccccc1)NC(=O)c1ccc(O)cc1O)S(=O)(=O)c1ccc(F)cc1`, the inhibition at 10 µM in data set [5] was 99.4%. Further, the CC50 at 24 h in data set [6] is more than 100000 nM. For the same compound, the selectivity ratio with HIV1 protease was more than 159000. This compound also came in with an IC50 in data set [4] of 0.63 nM.
Consider `CC(C)CN(C[C@@H](O)[C@H](Cc1ccccc1)NC(=O)c1ccc(O)cc1O)S(=O)(=O)c1ccc(C(F)(F)F)cc1`, for which half-maximal inhibition in data set [4] (IC50) required 8.82 nM. This counts as single-digit nanomolar.
Same read-out and setting: the same measure for `CC(C)CN(C[C@@H](O)[C@H](Cc1ccccc1)NC(=O)c1ccccc1O)S(=O)(=O)c1ccc([N+](=O)[O-])cc1`: 13.3 nM.
For the compound `COc1ccc(C(=O)N[C@@H](Cc2ccccc2)[C@H](O)CN(CC(C)C)S(=O)(=O)c2ccc(F)cc2)c(O)c1`, the inhibition at 10 µM in [5] was 82.2%. This compound registered an IC50 in data set [4] of 8.34 nM.
Turning to `CC(C)CN(C[C@@H](O)[C@H](Cc1ccccc1)NC(=O)c1cc(O)cc(O)c1)S(=O)(=O)c1ccc(C(F)(F)F)cc1`, the CC50 at 24 h in data set [6] is more than 100000 nM. In addition, the selectivity ratio in the data set on HIV1 protease is more than 1.28e+06. This compound also yielded an IC50 in data set [4] of 0.078 nM.
The matching figures for `CC(C)CN(C[C@@H](O)[C@H](Cc1ccccc1)NC(=O)c1ccc(O)cc1O)S(=O)(=O)c1ccc([N+](=O)[O-])cc1`: more than 100000 nM, more than 41300 and 2.42 nM.
In data set [4], `COc1cc(O)c(C(=O)N[C@@H](Cc2ccccc2)[C@H](O)CN(CC(C)C)S(=O)(=O)c2ccc(C(F)(F)F)cc2)cc1OC` had an IC50 of 11.4 nM. That is a double-digit nanomolar value.
On the same count and under the same terms, as for `COc1cc(O)c(C(=O)N[C@@H](Cc2ccccc2)[C@H](O)CN(CC(C)C)S(=O)(=O)c2ccc(F)cc2)cc1OC`, the figure is 11.5 nM.
Regarding `CC(C)CN(C[C@@H](O)[C@H](Cc1ccccc1)NC(=O)c1ccccc1O)S(=O)(=O)c1ccc(F)cc1`, the inhibition at 10 µM in data set [5] was determined as 92.6%. For the same compound, the CC50 at 24 h in [6] is more than 100000 nM. Moreover, the selectivity ratio with HIV1 protease is more than 49000. Also, the IC50 in data set [4] was found to be 2.04 nM.
For `CC(C)CN(C[C@@H](O)[C@H](Cc1ccccc1)NC(=O)c1ccc(O)c(O)c1)S(=O)(=O)c1ccc([N+](=O)[O-])cc1`, the CC50 at 24 h in [6] was 35600 nM. In addition, in the data set with HIV1 protease, the selectivity ratio was determined as 142000. Besides, the IC50 in [4] turned out to be 0.25 nM.
The like results for `CC(C)CN(C[C@@H](O)[C@H](Cc1ccccc1)NC(=O)c1cc(O)c(O)c(O)c1)S(=O)(=O)c1ccc([N+](=O)[O-])cc1` were, in that order, more than 100000 nM, more than 137000 and 0.73 nM.
Regarding `CC(C)CN(C[C@@H](O)[C@H](Cc1ccccc1)NC(=O)c1ccc(O)c(O)c1)S(=O)(=O)c1ccc(F)cc1`, the values for the inhibition at 10 µM in data set [5] and in [7] were 100% and 12.5%, respectively. Besides, the EC50 in data set [1] was 2180 nM; in data set [2] it was 360 nM. For the same compound, the CC50 at 24 h in data set [6] came out at 57600 nM. Also, in the data set on HIV1 protease, the selectivity ratio was 768000. This compound also showed an IC50 in [4] of 0.075 nM. For the same compound, the “Ratio EC50” value in data set [8] was determined as 6.06.
In turn, `COc1cc(C(=O)N[C@@H](Cc2ccccc2)[C@H](O)CN(CC(C)C)S(=O)(=O)c2ccc(C(F)(F)F)cc2)cc(OC)c1O` came in with an IC50 in [4] of 8.27 nM.
Same read-out and setting: the same measure for `CC(C)CN(C[C@@H](O)[C@H](Cc1ccccc1)NC(=O)c1ccc(Cl)cc1O)S(=O)(=O)c1ccc(C(F)(F)F)cc1`: 6.23 nM.
In the case of `CC(C)CN(C[C@@H](O)[C@H](Cc1ccccc1)NC(=O)c1ccc(O)c(O)c1)S(=O)(=O)c1ccc(C(F)(F)F)cc1`, the CC50 at 24 h in [6] was 38200 nM. The selectivity ratio in the data set with HIV1 protease worked out at 496000. In data set [4], inhibition was half-maximal at 0.077 nM (IC50).
As to `COc1cc(O)c(C(=O)N[C@@H](Cc2ccccc2)[C@H](O)CN(CC(C)C)S(=O)(=O)c2ccc([N+](=O)[O-])cc2)cc1OC`, in data set [4], the IC50 amounted to 13.7 nM.

What is called EC50 is the midpoint of the concentration-response curve. As usually defined, the inhibition is the drop in the measured response relative to a control, in per cent. One may read the IC50 as the concentration at which inhibition is half-maximal. Low values mean inhibition by little substance, high ones a need for much substance. In general, CC50 refers to the concentration at which the toxic effect on the cells reaches its halfway point.

Source of the values: ChEMBL document CHEMBL5143688, “A kind of HIV-1 protease inhibitors containing phenols with antiviral activity against DRV-resistant variants” (Bioorg Med Chem, 2022).
